According to the OligoGym collection:
Bases are written 5' to 3'; sugars and linkages follow in the same order, as letters with counts (s phosphorothioate, o phosphodiester; PS: all linkages phosphorothioate). The collection does not say whether C is 5-methylated. l = locked nucleic acid (LNA); d = 2'-deoxy (DNA)

Each sequence was assayed against Tau (assay: rat primary cortical neurons, FLIPR, 25 uM ASO).
In the case of ACTTCTAATTTAGTCAC (sugars l4 d9 l4, PS), the calcium oscillation score is reported as 77.2 % of control. With “ACTTGGGTGGAGTACGGACC (sugars l3 d14 l3, PS)” the calcium oscillation score was 0 % of control. For “ACTTGTACACGATCTCCGCC (sugars l3 d14 l3, PS)”, the calcium oscillation score was 103 % of control. In the case of “ACTTTATCCCTCCATGA (sugars l3 d11 l3, PS)”, the calcium oscillation score is reported as 39.6 % of control. “ACTTTATCCCTCCATGAT (sugars l3 d11 l4, PS)” was tested, and the calcium oscillation score was 47.4 % of control. With “ACTTTATTTCCAAATTCACT (sugars l4 d11 l5, PS)” the calcium oscillation score was 115 % of control. “ACTTTATTTCCAAATTCACT (sugars l5 d10 l5, PS)” was tested, and the calcium oscillation score was 98 % of control. “ACTTTATTTCCAAATTCACT (sugars l5 d11 l4, PS)” was tested, and the calcium oscillation score was 138 % of control. “ACTTTATTTCCAAATTCACTT (sugars l5 d11 l5, PS)” was tested, and the calcium oscillation score was 121 % of control. With “ACTTTATTTCCAAATTCACTTTTAC (sugars l1 d1 l2 d18 l3, PS)” the calcium oscillation score was 23.6 % of control. “ACTTTATTTCCAAATTCACTTTTAC (sugars l1 d19 l5, PS)” was tested, and the calcium oscillation score was 86.5 % of control. For “ACTTTATTTCCAAATTCACTTTTAC (sugars l3 d18 l4, PS)”, the calcium oscillation score was 35.4 % of control. For “ACTTTATTTCCAAATTCACTTTTAC (sugars l4 d16 l2 d1 l2, PS)”, the calcium oscillation score was 29.5 % of control. With “ACTTTATTTCCAAATTCACTTTTAC (sugars ldllddddddddddddddddllldl, PS)” the calcium oscillation score was 76.7 % of control. In the case of “ACTTTATTTCCAAATTCACTTTTAC (sugars ldllldddddddddddddddllddl, PS)”, the calcium oscillation score is reported as 17.7 % of control. In the case of “ACTTTATTTCCAAATTCACTTTTAC (sugars llddldddddddddddddddllddl, PS)”, the calcium oscillation score is reported as 17.7 % of control. In the case of “ACTTTATTTCCAAATTCACTTTTAC (sugars lldldddddddddddddddddlldl, PS)”, the calcium oscillation score is reported as 29.5 % of control. In the case of “ACTTTATTTCCAAATTCACTTTTAC (sugars lldlddddddddddddddddldlll, PS)”, the calcium oscillation score is reported as 35.4 % of control. With “ACTTTATTTCCAAATTCACTTTTAC (sugars llldddddddddddddddddldldl, PS)” the calcium oscillation score was 17.7 % of control. In the case of “ACTTTCCTAATTCCCAAATT (sugars l3 d15 l2, PS)”, the calcium oscillation score is reported as 63.3 % of control. In the case of “ACTTTTGAACCCATTCC (sugars l2 d12 l3, PS)”, the calcium oscillation score is reported as 83.6 % of control. In the case of AGAAATAAGTGGTAGT (sugars l2 d11 l3, PS), the calcium oscillation score is reported as 102 % of control. With AGAAATAAGTGGTAGT (sugars l2 d12 l2, PS) the calcium oscillation score was 86.9 % of control. AGAAATAAGTGGTAGT (sugars l3 d9 l4, PS) was tested, and the calcium oscillation score was 101 % of control. AGAAATAAGTGGTAGT (sugars l3 d11 l2, PS) was tested, and the calcium oscillation score was 85.7 % of control. With AGAAATAAGTGGTAGT (sugars l4 d8 l4, PS) the calcium oscillation score was 88.1 % of control. AGAAATAAGTGGTAGT (sugars l4 d9 l3, PS) was tested, and the calcium oscillation score was 89.3 % of control. In the case of “AGAACTTCTAGTTATACAGT (sugars l3 d14 l3, PS)”, the calcium oscillation score is reported as 35.7 % of control. AGAATATTACACCATC (sugars l4 d8 l4, PS) was tested, and the calcium oscillation score was 102 % of control. “AGACACCTCGTCAGCTAGCG (sugars l3 d14 l3, PS)” was tested, and the calcium oscillation score was 9.07 % of control. For “AGACCACATTTCCATCC (sugars l2 d13 l2, PS)”, the calcium oscillation score was 72 % of control. With “AGACCACATTTCCATCCC (sugars l1 d15 l2, PS)” the calcium oscillation score was 71.6 % of control. With “AGACTATTTGCACACTGCCG (sugars l3 d14 l3, PS)” the calcium oscillation score was 40.7 % of control. With “AGAGACCACATTATCATCCA (sugars l3 d14 l3, PS)” the calcium oscillation score was 26.2 % of control. With “AGAGAGACCACATTATCATC (sugars l3 d14 l3, PS)” the calcium oscillation score was 68.5 % of control. AGAGGAACGTGTGGAT (sugars l3 d10 l3, PS) was tested, and the calcium oscillation score was 25.9 % of control. With AGAGGCACAAGTCCT (sugars l3 d9 l3, PS) the calcium oscillation score was 74.3 % of control. In the case of AGAGGCACAAGTCCTT (sugars l3 d10 l3, PS), the calcium oscillation score is reported as 78.1 % of control. “AGATATTCATTCCCTCA (sugars l3 d12 l2, PS)” was tested, and the calcium oscillation score was 53 % of control. “AGATCATCCATTTTCTT (sugars l2 d11 l4, PS)” was tested, and the calcium oscillation score was 55.3 % of control. With AGCAATAGCAAACAG (sugars l3 d9 l3, PS) the calcium oscillation score was 52.8 % of control. AGCAATAGCAAACAGG (sugars l3 d10 l3, PS) was tested, and the calcium oscillation score was 48.8 % of control. With AGCAGAGGAACGTGTG (sugars l3 d10 l3, PS) the calcium oscillation score was 11.1 % of control. With “AGCAGGTTAAGTGATTAACC (sugars l3 d14 l3, PS)” the calcium oscillation score was 16 % of control. AGCATCAGAGGTTTCA (sugars l3 d10 l3, PS) was tested, and the calcium oscillation score was 0 % of control. With “AGCCACACTTGGAGGTCACC (sugars l3 d14 l3, PS)” the calcium oscillation score was 0 % of control. For AGCCACTGTTGCCACA (sugars l2 d12 l2, PS), the calcium oscillation score was 39.3 % of control. For “AGCCCATTTACAATTCA (sugars l2 d11 l4, PS)”, the calcium oscillation score was 76.7 % of control. In the case of AGCCCTAAAGTCCCAG (sugars l3 d10 l3, PS), the calcium oscillation score is reported as 38.1 % of control. In the case of “AGCCTCTAGCCACATGGACC (sugars l3 d14 l3, PS)”, the calcium oscillation score is reported as 16.1 % of control. In the case of AGCGTGATCTTCCATC (sugars l3 d10 l3, PS), the calcium oscillation score is reported as 101 % of control. With AGCTACTCACAACCCA (sugars l2 d11 l3, PS) the calcium oscillation score was 65.6 % of control. For “AGCTGGGTGGTGTCTTTGGA (sugars l3 d14 l3, PS)”, the calcium oscillation score was 0 % of control. “AGCTTCCACATTTTACA (sugars l3 d12 l2, PS)” was tested, and the calcium oscillation score was 63.8 % of control. In the case of “AGCTTCGTCTTCCAGGCTGG (sugars l3 d14 l3, PS)”, the calcium oscillation score is reported as 13.3 % of control. For “AGCTTGTGGGTTTCAATCTT (sugars l3 d14 l3, PS)”, the calcium oscillation score was 0 % of control. For AGCTTTGAGTTGAGGG (sugars l3 d10 l3, PS), the calcium oscillation score was 0 % of control. AGGAAATCCACAGGGA (sugars l3 d10 l3, PS) was tested, and the calcium oscillation score was 0 % of control. “AGGCAAAGGTTTATCTTCCA (sugars l3 d14 l3, PS)” was tested, and the calcium oscillation score was 33 % of control. For AGGCACAAGTCCTTA (sugars l3 d9 l3, PS), the calcium oscillation score was 107 % of control. With AGGCATGATTGTGGGC (sugars l3 d10 l3, PS) the calcium oscillation score was 0 % of control. In the case of AGGCGCGAGCAGCG (sugars l3 d8 l3, PS), the calcium oscillation score is reported as 100 % of control. AGGGACCCAATCTTCG (sugars l3 d10 l3, PS) was tested, and the calcium oscillation score was 73.3 % of control. “AGGGACGTGGGTGATATTGT (sugars l3 d14 l3, PS)” was tested, and the calcium oscillation score was 1.3 % of control. “AGGTATCCAGCCATATTTCA (sugars l3 d14 l3, PS)” was tested, and the calcium oscillation score was 20.2 % of control. For AGGTCAACTGGTTT (sugars l3 d8 l3, PS), the calcium oscillation score was 117 % of control. In the case of AGGTCAACTGGTTTGT (sugars l3 d10 l3, PS), the calcium oscillation score is reported as 0 % of control. With “AGGTCAACTGGTTTGTAGAC (sugars l3 d14 l3, PS)” the calcium oscillation score was 0 % of control. With AGGTCACCTTGCTCAG (sugars l3 d10 l3, PS) the calcium oscillation score was 52.8 % of control. In the case of AGGTCTGGCATGGGC (sugars l3 d9 l3, PS), the calcium oscillation score is reported as 47.6 % of control. “AGGTTAAGTGATTAACCAAT (sugars l3 d14 l3, PS)” was tested, and the calcium oscillation score was 115 % of control. In the case of AGTCAAGCATCACGTT (sugars l3 d10 l3, PS), the calcium oscillation score is reported as 42.2 % of control. AGTCACTCTGGTGA (sugars l3 d8 l3, PS) was tested, and the calcium oscillation score was 97.1 % of control. AGTCCCGAGCCAAAG (sugars l3 d9 l3, PS) was tested, and the calcium oscillation score was 36.6 % of control. AGTCCCGTCTTTGC (sugars l3 d8 l3, PS) was tested, and the calcium oscillation score was 2.61 % of control. In the case of AGTCCTAATCCTGTGC (sugars l3 d10 l3, PS), the calcium oscillation score is reported as 25.3 % of control. With AGTCTACCATGTCGAT (sugars l3 d10 l3, PS) the calcium oscillation score was 69.1 % of control. With “AGTCTACCATGTCGATGCTG (sugars l3 d14 l3, PS)” the calcium oscillation score was 71.2 % of control. AGTCTTTATTAACACTC (sugars l4 d9 l4, PS) was tested, and the calcium oscillation score was 60.8 % of control. With AGTGACAGAAGAGACG (sugars l3 d10 l3, PS) the calcium oscillation score was 9.04 % of control. “AGTGATTAACCAATTAACCG (sugars l3 d14 l3, PS)” was tested, and the calcium oscillation score was 5.18 % of control. AGTGGAGCCGATCTTG (sugars l3 d10 l3, PS) was tested, and the calcium oscillation score was 0 % of control. “AGTTCCCACAATTCCTA (sugars l2 d13 l2, PS)” was tested, and the calcium oscillation score was 38.7 % of control. “AGTTCCCACAATTCCTAC (sugars l2 d13 l3, PS)” was tested, and the calcium oscillation score was 50.4 % of control. For AGTTTGTGCAAGGTC (sugars l3 d9 l3, PS), the calcium oscillation score was 0 % of control. ATAAATTTGAACCCCT (sugars l3 d9 l4, PS) was tested, and the calcium oscillation score was 49.7 % of control. “ATACAATAAATACCATATTC (sugars l3 d14 l3, PS)” was tested, and the calcium oscillation score was 81 % of control. In the case of “ATACAGTTGGCCCTACCATA (sugars l3 d14 l3, PS)”, the calcium oscillation score is reported as 30.9 % of control. “ATACTCAAATTCTTCCT (sugars l3 d10 l4, PS)” was tested, and the calcium oscillation score was 84.8 % of control. For “ATACTCAAATTCTTCCTT (sugars l4 d11 l3, PS)”, the calcium oscillation score was 70.9 % of control. “ATACTCAAATTCTTCCTTT (sugars l3 d12 l4, PS)” was tested, and the calcium oscillation score was 74 % of control. ATAGATTTTACTACTC (sugars l4 d8 l4, PS) was tested, and the calcium oscillation score was 73.3 % of control. With ATAGCAAACAGGATAC (sugars l3 d10 l3, PS) the calcium oscillation score was 27.6 % of control. With ATAGTCACTCTGGTG (sugars l3 d9 l3, PS) the calcium oscillation score was 27.8 % of control. ATAGTCACTCTGGTGA (sugars l3 d10 l3, PS) was tested, and the calcium oscillation score was 85.7 % of control. In the case of ATATCATATCCTAAGC (sugars l4 d9 l3, PS), the calcium oscillation score is reported as 50.9 % of control. In the case of “ATATTCCACACATAAACAA (sugars l4 d11 l4, PS)”, the calcium oscillation score is reported as 62.8 % of control. For ATATTGAACTCACCCA (sugars l4 d9 l3, PS), the calcium oscillation score was 67.3 % of control. For “ATATTGAACTCACCCAC (sugars l2 d11 l4, PS)”, the calcium oscillation score was 54.3 % of control. “ATATTGTCCAGGGACCCAAT (sugars l3 d14 l3, PS)” was tested, and the calcium oscillation score was 19.9 % of control. “ATATTTAGTTTTCCCAC (sugars l2 d11 l4, PS)” was tested, and the calcium oscillation score was 42.4 % of control. In the case of “ATCAATTCTCATTTCAACCT (sugars l3 d15 l2, PS)”, the calcium oscillation score is reported as 70.7 % of control. “ATCAATTTGGAAAGATGAAA (sugars l3 d14 l3, PS)” was tested, and the calcium oscillation score was 10.4 % of control. For “ATCACAAACCCTGCTTGGCC (sugars l3 d14 l3, PS)”, the calcium oscillation score was 55.2 % of control. For “ATCACTGATTTTGAAGTCCC (sugars l5 d10 l5, PS)”, the calcium oscillation score was ≥ 200 % of control. ATCACTTCGAACTCCT (sugars l3 d10 l3, PS) was tested, and the calcium oscillation score was 159 % of control. ATCAGAGGGTCTGAGC (sugars l3 d10 l3, PS) was tested, and the calcium oscillation score was 59.3 % of control.
